Results on four compounds are retold here after article PMC6264193, “Synthesis and Biological Evaluation of Novel ^99mTc-Labelled Bisphosphonates as Superior Bone Imaging Agents” (Molecules, 2011).

The term melting point denotes the temperature, or range, at which the solid turns liquid.

One data set concerns bone resorption. Details: method as in PMID 18593621. The following applies: preclinical models of bone resorption; cited from earlier work.

`Cc1nccn1CCC(O)(P(=O)(O)O)P(=O)(O)O` [Compound 4a, 1-Hydroxy-3-(2-methyl-1H-imidazol-1-yl)propane-1,1-diyldiphosphonic acid] had a melting point of 183 to 186 °C.
For `O=P(O)(O)C(O)(Cn1ccnc1)P(=O)(O)O` [ZL, 1-hydroxy-2-(imidazol-1-yl)-ethylidene-1,1-bisphosphonic acid], in the data set with bone resorption, the “potency relative to clodronate and pamidronate” value is reported as “at least 100 times”; the “potency relative to etidronate” value is “at least 1,000 times”.
The compound `Cc1nccn1CCCCC(O)(P(=O)(O)O)P(=O)(O)O` [Compound 4c, 1-Hydroxy-5-(2-methyl-1H-imidazol-1-yl)pentane-1,1-diyldiphosphonic acid] had a melting point of 212 to 215 °C.
For `Cc1nccn1CCCC(O)(P(=O)(O)O)P(=O)(O)O` [Compound 4b, 1-Hydroxy-4-(2-methyl-1H-imidazol-1-yl)butane-1,1-diyldiphosphonic acid], the melting point lay within 142 to 145 °C.
